Test results: ChEMBL document CHEMBL5729637, “Beta-amino acid derivative, kinase inhibitor and pharmaceutical composition containing the same, and method for performing an in vivo related application that benefits from the inhibition of a kinase” (2023)

Biological target: T1, Mitogen-activated protein kinase kinase kinase 19 (Homo sapiens, UniProt Q56UN5)
T1 sequence (Q56UN5 whole entry): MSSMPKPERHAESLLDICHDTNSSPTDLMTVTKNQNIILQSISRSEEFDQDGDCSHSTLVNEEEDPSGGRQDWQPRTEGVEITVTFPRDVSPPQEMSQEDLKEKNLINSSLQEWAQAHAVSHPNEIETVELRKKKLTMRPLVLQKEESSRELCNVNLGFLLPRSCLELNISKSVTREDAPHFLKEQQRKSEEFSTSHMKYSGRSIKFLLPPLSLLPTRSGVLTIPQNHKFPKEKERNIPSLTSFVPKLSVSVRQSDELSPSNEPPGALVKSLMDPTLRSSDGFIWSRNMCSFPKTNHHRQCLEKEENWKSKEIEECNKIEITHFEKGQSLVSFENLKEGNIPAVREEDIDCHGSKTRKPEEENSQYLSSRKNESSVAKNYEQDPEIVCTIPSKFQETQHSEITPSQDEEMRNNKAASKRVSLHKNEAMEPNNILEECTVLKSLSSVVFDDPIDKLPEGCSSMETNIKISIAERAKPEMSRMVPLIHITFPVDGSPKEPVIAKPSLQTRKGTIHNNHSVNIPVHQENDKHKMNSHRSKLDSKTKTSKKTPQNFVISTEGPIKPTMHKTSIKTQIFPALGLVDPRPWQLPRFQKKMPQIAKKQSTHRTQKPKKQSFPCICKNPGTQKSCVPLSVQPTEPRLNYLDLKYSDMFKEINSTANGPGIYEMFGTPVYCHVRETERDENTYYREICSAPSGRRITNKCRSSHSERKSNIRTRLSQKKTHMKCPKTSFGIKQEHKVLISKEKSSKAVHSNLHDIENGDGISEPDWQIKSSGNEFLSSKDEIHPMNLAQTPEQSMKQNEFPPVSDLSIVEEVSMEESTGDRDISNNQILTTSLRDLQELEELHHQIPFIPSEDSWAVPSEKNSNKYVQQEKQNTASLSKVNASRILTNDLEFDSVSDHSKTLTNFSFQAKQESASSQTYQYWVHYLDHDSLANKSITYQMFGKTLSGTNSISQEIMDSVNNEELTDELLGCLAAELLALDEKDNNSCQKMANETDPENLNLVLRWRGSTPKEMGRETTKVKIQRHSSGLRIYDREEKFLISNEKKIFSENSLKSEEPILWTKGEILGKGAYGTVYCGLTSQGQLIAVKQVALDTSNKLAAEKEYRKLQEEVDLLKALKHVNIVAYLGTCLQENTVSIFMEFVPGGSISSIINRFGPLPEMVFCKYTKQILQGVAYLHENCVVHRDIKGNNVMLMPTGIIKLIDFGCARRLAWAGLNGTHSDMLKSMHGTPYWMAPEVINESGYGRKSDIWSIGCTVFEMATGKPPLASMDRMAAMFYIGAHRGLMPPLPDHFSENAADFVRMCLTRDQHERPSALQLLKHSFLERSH
Experiment: In Vitro Effect Assay: Table 5: The experimental procedure referred to the Z′-LYTE Screening Protocol and Assay Conditions provided by ThermoFisher Scientific. C-1. […] Peptide/Kinase Mixture was pre-diluted with Kinase Buffer to 2× working concentration. ATP solution was pre-diluted with Kinase Buffer (50 mM HEPES pH 7.5, 0.01% BRIJ-35, 10 mM MgCl2, 1 mM EGTA) to 4× working concentration. […], which contains 2 mg/mL Phosphatidyl Serine, 0.2 mg/mL DAG in 20 mM HEPES, pH 7.4 and 0.3% CHAPS, and was pre-diluted 10 fold with development buffer.C-2. Analytical Method. 1. 100 nL of the above diluted test compound and 2.4 μL of kinase buffer were added to a black 384-well plate (Corning, Cat. NO. 4514), then add 5 μL of the peptide/kinase mixture mentioned above was added thereto, and after that 2.5 μL of ATP solution was added thereto, and the culture plate was shaken for 30 seconds.2. Next, the culture plate was placed at room temperature and incubated for 60 minutes.3. After that 5 μL of the development reagent solution was added and the culture plate was shaken for 30 seconds in the dark, and then the data was read and analyzed with a fluorescence plate reader. […]

Row | SMILES | IC50
1 | NCC(Oc1ccc(C(F)(F)F)cc1)C(=O)Nc1ccc(-c2cn[nH]c2)cc1 (configuration not stated) | > 10 µM
2 | NCC(C(=O)Nc1ccc(-c2cn[nH]c2)cc1)c1ccc(CO)cc1 (configuration not stated) | > 1 µM
